Series [1] deals with HBV. Kind of series: HepAD38 antiviral assay: reduction of viral product accumulation (virion DNA by qPCR, HBsAg or HBeAg by ELISA). In kind it is cell-based. To be noted: Hepatitis B virus, 120 h; HepAD38 cells, five days after compound addition; 50% reduction of viral product accumulation relative to no drug controls; read-out: HepAD38 EC50. Put shortly:
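Tetracycline-washed HepAD38 cells treated with compound (DMSO diluted 1:200) for 5 days, or 8 days with media and compound refreshed on d2 and d5. Virion DNA from lysates quantified by qPCR; HBsAg or HBeAg by ELISA. EC50 is the concentration giving 50% reduction versus no-drug controls, reported as ranges A<1 μM, B 1-10 μM, C>10 μM.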

A short description of series [2]: Compound toxicity, ATPLite total ATP levels. The format is cell-based. The settings on record: human, HepAD38 cells; 15,000 cells/well, three days after compound addition; 50% reduction of total ATP levels relative to no drug controls. In outline:
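HepAD38 cells, washed free of tetracycline, seeded at 15,000 cells/well and given compound (DMSO stock diluted 1:200) for 3 days. Total ATP read by ATPLite; CC50 is the concentration cutting ATP by 50% versus no-drug controls, reported as ranges A>30 μM, B 10-30 μM, C<10 μM.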

On to `COC(=O)C(C)NS(=O)(=O)c1cc(-c2nc(-c3ccc(Br)c(F)c3)c[nH]2)ccc1Cl` (stereo not shown) [Example 128], for which the EC50 in series [1] is greater than 10 µM. This molecule also showed a CC50 at 3 days in series [2] greater than 30 µM.

`CC(CO)N(C)S(=O)(=O)c1cc(-c2nc(-c3ccc(Br)c(F)c3)c[nH]2)ccc1Cl` (stereo not shown) [Example 129]: the EC50 in series [1] was less than 1 µM. The same molecule yielded a CC50 at 3 days in series [2] of less than 10 µM.

On to `O=S(=O)(c1cc(-c2nc(-c3ccc(Br)c(F)c3)c[nH]2)ccc1Cl)N1CCN(c2ccccn2)CC1` [Example 130], for which, in series [1], the EC50 is less than 1 µM. This molecule also returned a CC50 at 3 days in series [2] greater than 30 µM.

Take `O=S(=O)(c1cc(-c2nc(-c3cc(F)c(Br)c(F)c3)c[nH]2)ccc1Cl)N1CCC(O)CC1` [Example 131]: the EC50 in series [1] is less than 1 µM. In addition, in series [2], the CC50 at 3 days is greater than 30 µM.

As to `O=S(=O)(c1cc(-c2nc(-c3ccc(Br)c(F)c3)c[nH]2)ccc1Cl)N1CCCCC(O)C1` (stereo not shown) [Example 132], the EC50 in series [1] is less than 1 µM. Moreover, the CC50 at 3 days in series [2] was greater than 30 µM.

As for `O=S(=O)(c1cc(-c2nc(-c3ccc(Br)c(F)c3)c[nH]2)ccc1Cl)N1CCC(O)(CO)CC1` [Example 133], the EC50 in series [1] was less than 1 µM. The molecule also showed a CC50 at 3 days in series [2] greater than 30 µM.

Regarding `CC(O)C(C)(C)NS(=O)(=O)c1cc(-c2nc(-c3ccc(Br)c(F)c3)c[nH]2)ccc1Cl` (stereo not shown) [Example 134], in series [1], the EC50 is less than 1 µM. Moreover, the CC50 at 3 days in series [2] is greater than 30 µM.

`O=S(=O)(c1cc(-c2nc(-c3ccc(Br)c(Br)c3)c[nH]2)ccc1Cl)N1CCC(O)CC1` [Example 135]: in series [1], the EC50 is less than 1 µM. The same molecule returned a CC50 at 3 days in series [2] greater than 30 µM.

On to `O=S(=O)(c1cc(-c2nc(-c3cccc(C4CC4)c3)c[nH]2)ccc1Cl)N1CCC(O)CC1` [Example 136], for which the EC50 in series [1] was in the range of 1 to 10 µM. In series [2], this molecule had a CC50 at 3 days greater than 30 µM.

For `O=S(=O)(c1cc(-c2nc(-c3ccc(Br)c(F)c3)c[nH]2)ccc1Cl)N1CCCC(O)CC1` (stereo not shown) [Example 137], the EC50 in series [1] was less than 1 µM. The CC50 at 3 days in series [2] is greater than 30 µM.

`CC(C)(C)OC(=O)NCCCNS(=O)(=O)c1cc(-c2nc(-c3ccc(Br)c(F)c3)c[nH]2)ccc1Cl` [Example 138]: the EC50 in series [1] is less than 1 µM. Besides, in series [2], the CC50 at 3 days is greater than 30 µM.

As to `COC(=O)NCCCNS(=O)(=O)c1cc(-c2nc(-c3ccc(Br)c(F)c3)c[nH]2)ccc1Cl` [Example 139], in series [1], the EC50 is less than 1 µM. In series [2], this molecule had a CC50 at 3 days greater than 30 µM.

As for `CC(C)OC(=O)NCCCNS(=O)(=O)c1cc(-c2nc(-c3ccc(Br)c(F)c3)c[nH]2)ccc1Cl` [Example 140], the EC50 in series [1] was less than 1 µM. Besides, the CC50 at 3 days in series [2] was greater than 30 µM.

With `CC(C)(C)OC(=O)N1CCN(S(=O)(=O)c2cc(-c3nc(-c4ccc(Br)c(F)c4)c[nH]3)ccc2Cl)CC1` [Example 142], the EC50 in series [1] was in the range of 1 to 10 µM. Further, in series [2], the CC50 at 3 days was less than 10 µM.

Regarding `COC(=O)N1CCN(S(=O)(=O)c2cc(-c3nc(-c4ccc(Br)c(F)c4)c[nH]3)ccc2Cl)CC1` [Example 143], in series [1], the EC50 was less than 1 µM. This molecule returned a CC50 at 3 days in series [2] greater than 30 µM.

In the case of `CN1CCN(S(=O)(=O)c2cc(-c3nc(-c4ccc(Br)c(F)c4)c[nH]3)ccc2Cl)CC1` [Example 144], in series [1], the EC50 is less than 1 µM. In series [2], this molecule displayed a CC50 at 3 days greater than 30 µM.

For the molecule `O=S(=O)(c1cc(-c2nc(-c3ccc(Br)c(F)c3)c[nH]2)ccc1Cl)N1CCN(CCO)CC1` [Example 145], the EC50 in series [1] was less than 1 µM. The CC50 at 3 days in series [2] was greater than 30 µM.

Consider `CC(C)(C)OC(=O)NCCNS(=O)(=O)c1cc(-c2nc(-c3ccc(Br)c(F)c3)c[nH]2)ccc1Cl` [Example 146], for which the EC50 in series [1] is less than 1 µM. Besides, the CC50 at 3 days in series [2] is greater than 30 µM.

For the molecule `CCOC(=O)NCCCNS(=O)(=O)c1cc(-c2nc(-c3ccc(Br)c(F)c3)c[nH]2)ccc1Cl` [Example 147], the EC50 in series [1] is less than 1 µM. This molecule returned a CC50 at 3 days in series [2] greater than 30 µM.

With `N#Cc1cc(-c2c[nH]c(-c3ccc(Cl)c(S(=O)(=O)N4CCC(O)CC4)c3)n2)ccc1Cl` [Example 148], the EC50 in series [1] is less than 1 µM. The molecule further had a CC50 at 3 days in series [2] greater than 30 µM.

(Values after patent US10442788B2, “Hepatitis B antiviral agents” (ENANTA PHARMACEUTICALS, INC., priority 2015, dated 2019).)
